Test results: publication PMC9873984, “Membrane cholesterol regulates inhibition and substrate transport by the glycine transporter, GlyT2” (Life Science Alliance, 2023)
Where a chain is given by its changes, count along the chain named.

Key:
[1] = target: T1, GlyT2 Y430L mutant (Homo sapiens, UniProt Q9Y345, Y430L); experiment: Inhibitor concentration–responses on glycine transport currents, two-electrode voltage clamp; type: cell-based; set-up: expressed in transfected cells; host or cells: Xenopus laevis oocytes injected with mutant RNA (pOTV vector); details: for IC50: Y430L GlyT2 in Xenopus laevis oocytes
T1 sequence (Q9Y345 1-797 Y430L): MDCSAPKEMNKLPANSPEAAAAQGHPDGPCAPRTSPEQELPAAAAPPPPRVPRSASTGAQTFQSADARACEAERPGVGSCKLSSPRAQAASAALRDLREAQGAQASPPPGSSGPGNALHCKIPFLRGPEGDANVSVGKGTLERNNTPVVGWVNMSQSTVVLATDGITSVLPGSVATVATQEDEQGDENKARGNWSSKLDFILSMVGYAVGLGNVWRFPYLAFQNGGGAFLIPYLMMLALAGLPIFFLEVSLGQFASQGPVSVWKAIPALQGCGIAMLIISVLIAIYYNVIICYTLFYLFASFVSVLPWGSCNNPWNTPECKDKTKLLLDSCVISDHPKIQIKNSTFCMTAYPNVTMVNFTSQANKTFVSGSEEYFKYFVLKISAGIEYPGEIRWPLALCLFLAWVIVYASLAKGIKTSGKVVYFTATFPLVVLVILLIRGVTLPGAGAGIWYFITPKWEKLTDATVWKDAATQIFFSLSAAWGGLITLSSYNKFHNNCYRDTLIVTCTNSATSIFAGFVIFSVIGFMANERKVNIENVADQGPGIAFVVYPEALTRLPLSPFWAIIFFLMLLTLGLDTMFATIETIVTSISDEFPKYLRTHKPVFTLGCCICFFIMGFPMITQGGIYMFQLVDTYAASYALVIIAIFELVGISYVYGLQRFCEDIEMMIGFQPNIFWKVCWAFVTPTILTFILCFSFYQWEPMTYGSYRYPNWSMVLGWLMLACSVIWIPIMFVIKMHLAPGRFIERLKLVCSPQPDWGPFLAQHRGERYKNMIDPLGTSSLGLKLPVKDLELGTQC
Description: (§1) Because of the slowly reversible nature of the compounds tested, inhibitor concentration–responses were performed cumulatively. An EC50 concentration of glycine was applied until a stable transport current was reached. EC50 concentrations of glycine were used to produce reliable currents for each transporter, and as the inhibitors are non-competitive, application of varying glycine concentrations is unlikely to affect their activity. Increasing concentrations of inhibitors were co-applied with glycine with each concentration producing a distinct plateau before the subsequent concentration was applied. Inhibitor concentration–responses were limited to a maximum concentration of 3 µM to mitigate the risk of changes to the free drug concentration because of micelle formation. Currents after the plateau of each inhibitor concentration were normalized to the current produced by application of glycine alone and fit using the method of least squares: Y=Bottom+(Top−Bottom)/(1+10^[X−LogIC50]), where X is log [inhibitor], Y is current normalized to glycine in the absence of inhibitor, and Top and Bottom are the maximal and minimal plateaus, respectively. The method of least squares was constrained to have the bottom value >0 and the hill slope as −1, enabling the calculation of IC50 values and the extent of inhibition produced by the maximal concentration applied.
(§2) IC50 values are presented as the mean and 95% confidence interval, whereas inhibition values are presented as the mean ± SEM. Data sets are n ≥ 5 from two batches of oocytes.

[2] = target: T2, GlyT2 F515W mutant (Homo sapiens, UniProt Q9Y345, F515W); experiment: as above; type: cell-based; set-up: expressed in transfected cells; host or cells: Xenopus laevis oocytes injected with mutant RNA (pOTV vector); details: for IC50: F515W GlyT2 in Xenopus laevis oocytes
T2 sequence (Q9Y345 1-797 F515W): T1 sequence (Q9Y345 1-797 Y430L) with L430Y, F515W
Description: as §1, §2

IC50 ([1]; 95% CI could not be fit) [nM] | Inhibition at 1 µM (column head 3 μM, footnote b) ([1]; Y430L, 1 µM) | Inhibition at 1 µM (column head 3 μM, footnote b) ([2]; F515W, 1 µM) | IC50 [1] [nM] | Inhibition at 3 μM ([1]; Y430L) [%] | IC50 [2] [nM] | Inhibition at 3 μM ([2]; F515W) [%] | IC50 ([1]; listed as OLLys) [nM] | Reduction of potency compared with WT ([1]; Y430L vs WT) | Structure (SMILES)
1100 | 49.6 ± 2.9^b % | 57.6 ± 2.3^b % | – | – | – | – | – | – | CCCCCCCC/C=C\CCCCCCCC(=O)O[C@H](CC(=O)[O-])C[N+](C)(C)C [Oleoyl-L-Carnitine, oleoyl-L-carnitine]
– | – | – | 375 | 63.8 ± 2.6 | 400 | 86.7 ± 1.7 | – | – | CCCCCCCC/C=C\CCCCCCCC(=O)N[C@@H](CC(C)C)C(=O)O [Oleoyl-L-Leucine, oleoyl-L-leucine]
– | – | – | 863 | 69.7 ± 4.7 | 689 | 85.3 ± 6.4 | 860 | fourfold | CCCCCCCC/C=C\CCCCCCCC(=O)N[C@@H](CCCCN)C(=O)O [Oleoyl-L-Lysine, oleoyl-L-lysine]
– | – | – | 57 | 83.5 ± 3.2 | 128 | 82.0 ± 3.9 | – | – | CCCCCCCC/C=C\CCCCCCCC(=O)N[C@@H](Cc1c[nH]c2ccccc12)C(=O)O [Oleoyl-L-Tryptophan, oleoyl-L-tryptophan]
